Reference: PubChem BioAssay (NCI)
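GI50 marks 50% less growth. TGI denotes the concentration required for complete inhibition of growth.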

Tests used:
Test in all cases: DTP human tumour cell line panel, 384-well format
786-0 renal = test system: 786-0 renal
ACHN renal = test system: ACHN renal
BT-549 breast = test system: BT-549 breast
CAKI-1 renal = test system: CAKI-1 renal
CCRF-CEM leukemia = test system: CCRF-CEM leukemia
COLO 205 colon = test system: COLO 205 colon
DU-145 prostate = test system: DU-145 prostate
EKVX NSCLC = test system: EKVX NSCLC
HCT-116 colon = test system: HCT-116 colon
HCT-15 colon = test system: HCT-15 colon
HL-60(TB) leukemia = test system: HL-60(TB) leukemia
HOP-62 NSCLC = test system: HOP-62 NSCLC
HOP-92 NSCLC = test system: HOP-92 NSCLC
HS 578T breast = test system: HS 578T breast
HT29 colon = test system: HT29 colon
IGROV1 ovarian = test system: IGROV1 ovarian
K-562 leukemia = test system: K-562 leukemia
LOX IMVI melanoma = test system: LOX IMVI melanoma
M14 melanoma = test system: M14 melanoma
MALME-3M melanoma = test system: MALME-3M melanoma
MCF7 breast = test system: MCF7 breast
MDA-MB-231 breast = test system: MDA-MB-231 breast
MDA-MB-435 melanoma = test system: MDA-MB-435 melanoma
NCI-H226 lung = test system: NCI-H226 lung
NCI-H23 lung = test system: NCI-H23 lung
NCI-H460 NSCLC = test system: NCI-H460 NSCLC
NCI-H522 lung = test system: NCI-H522 lung
OVCAR-3 ovarian = test system: OVCAR-3 ovarian
OVCAR-5 ovarian = test system: OVCAR-5 ovarian
OVCAR-8 ovarian = test system: OVCAR-8 ovarian
PC-3 prostate = test system: PC-3 prostate
RPMI-8226 leukemia = test system: RPMI-8226 leukemia
RXF 393 renal = test system: RXF 393 renal
SF-268 CNS = test system: SF-268 CNS
SF-295 CNS = test system: SF-295 CNS
SF-539 CNS = test system: SF-539 CNS
SK-MEL-2 melanoma = test system: SK-MEL-2 melanoma
SK-MEL-28 melanoma = test system: SK-MEL-28 melanoma
SK-MEL-5 melanoma = test system: SK-MEL-5 melanoma
SK-OV-3 ovarian = test system: SK-OV-3 ovarian
SN12C renal = test system: SN12C renal
SNB-19 CNS = test system: SNB-19 CNS
SW-620 colon = test system: SW-620 colon
T-47D breast = test system: T-47D breast
TK-10 renal = test system: TK-10 renal
U251 glioblastoma = test system: U251 glioblastoma
UACC-62 melanoma = test system: UACC-62 melanoma

For `COc1cc(C)[nH]c(=O)c1CNC(=O)c1c(C)n([C@H](C)C2CCN(CC(F)(F)F)CC2)c2ccccc12`, the GI50 ([…]-0 renal) was 50.6 µM, the TGI (786-0 renal) was greater than 100 µM and the GI50 (ACHN renal) was 45.4 µM. It also gave a TGI (ACHN renal) greater than 100 µM, a GI50 (BT-549 breast) of 27.4 µM and a TGI (BT-549 breast) greater than 72.6 µM. It also gave a GI50 (CAKI-1 renal) of 63.5 µM, a TGI (CAKI-1 renal) greater than 100 µM and a GI50 (CCRF-CEM leukemia) of 21.6 µM. It also gave a TGI (CCRF-CEM leukemia) of 43.9 µM, a GI50 (COLO 205 colon) of 97.3 µM and a TGI (COLO 205 colon) greater than 100 µM. It also gave a GI50 (DU-145 prostate) of 51.1 µM, a TGI (DU-145 prostate) greater than 100 µM and a GI50 (EKVX NSCLC) of 67.7 µM. It also gave a TGI (EKVX NSCLC) greater than 100 µM, a GI50 (HCT-116 colon) of 66.8 µM and a TGI (HCT-116 colon) greater than 100 µM. The GI50 (HCT-15 colon) was 67 µM, the TGI (HCT-15 colon) was greater than 100 µM and the GI50 (HL-60(TB) leukemia) was 33.4 µM. It also gave a TGI (HL-60(TB) leukemia) greater than 61.6 µM, a GI50 (HOP-62 NSCLC) of 46.7 µM and a TGI (HOP-62 NSCLC) greater than 100 µM. The GI50 (HOP-92 NSCLC) was 45.7 µM, the TGI (HOP-92 NSCLC) was greater than 100 µM and the GI50 (HS 578T breast) was 40.1 µM. The TGI (HS 578T breast) was greater than 100 µM, the GI50 (HT29 colon) was 39.7 µM and the TGI (HT29 colon) was greater than 100 µM. For the same molecule, the GI50 (IGROV1 ovarian) was 44.1 µM, the TGI (IGROV1 ovarian) was greater than 100 µM and the GI50 (K-562 leukemia) was 36.3 µM. The TGI (K-562 leukemia) was greater than 100 µM, the GI50 (LOX IMVI melanoma) was 31.7 µM and the TGI (LOX IMVI melanoma) was 94.1 µM. It also gave a GI50 (M14 melanoma) greater than 72.8 µM, a TGI (M14 melanoma) greater than 100 µM and a GI50 (MALME-3M melanoma) greater than 66.1 µM. For the same molecule, the TGI (MALME-3M melanoma) was greater than 100 µM, the GI50 (MCF7 breast) was 27.3 µM and the TGI (MCF7 breast) was greater than 100 µM. The GI50 (MDA-MB-231 breast) was 67.5 µM, the TGI (MDA-MB-231 breast) was greater than 100 µM and the GI50 (MDA-MB-435 melanoma) was 58.6 µM. It also gave a TGI (MDA-MB-435 melanoma) greater than 100 µM, a GI50 (NCI-H226 lung) greater than 51.9 µM and a TGI (NCI-H226 lung) of 96.9 µM. The GI50 (NCI-H23 lung) was greater than 100 µM, the TGI (NCI-H23 lung) was greater than 100 µM and the GI50 (NCI-H460 NSCLC) was 54.7 µM. For the same molecule, the TGI (NCI-H460 NSCLC) was greater than 100 µM, the GI50 (NCI-H522 lung) was 65.2 µM and the TGI (NCI-H522 lung) was greater than 100 µM. It also gave a GI50 (OVCAR-3 ovarian) of 34.2 µM, a TGI (OVCAR-3 ovarian) greater than 96.5 µM and a GI50 (OVCAR-5 ovarian) greater than 100 µM. The TGI (OVCAR-5 ovarian) was greater than 100 µM, the GI50 (OVCAR-8 ovarian) was greater than 96 µM and the TGI (OVCAR-8 ovarian) was greater than 100 µM. For the same molecule, the GI50 (PC-3 prostate) was 55.5 µM, the TGI (PC-3 prostate) was greater than 100 µM and the GI50 (RPMI-8226 leukemia) was 2400 nM. It also gave a TGI (RPMI-8226 leukemia) of 10.3 µM, a GI50 (RXF 393 renal) of 28.3 µM and a TGI (RXF 393 renal) of 79.7 µM. It also gave a GI50 (SF-268 CNS) of 39.6 µM, a TGI (SF-268 CNS) greater than 68.2 µM and a GI50 (SF-295 CNS) of 76.6 µM. For the same molecule, the TGI (SF-295 CNS) was greater than 100 µM, the GI50 (SF-539 CNS) was greater than 100 µM and the TGI (SF-539 CNS) was greater than 100 µM. The GI50 (SK-MEL-2 melanoma) was 38.6 µM, the TGI (SK-MEL-2 melanoma) was greater than 100 µM and the GI50 (SK-MEL-28 melanoma) was 98.2 µM. For the same molecule, the TGI (SK-MEL-28 melanoma) was greater than 100 µM, the GI50 (SK-MEL-5 melanoma) was 33.5 µM and the TGI (SK-MEL-5 melanoma) was greater than 65.5 µM. It also gave a GI50 (SK-OV-3 ovarian) of 56.6 µM, a TGI (SK-OV-3 ovarian) greater than 100 µM and a GI50 (SN12C renal) greater than 80.5 µM. It also gave a TGI (SN12C renal) greater than 100 µM, a GI50 (SNB-19 CNS) greater than 100 µM and a TGI (SNB-19 CNS) greater than 100 µM. The GI50 (SW-620 colon) was 52 µM, the TGI (SW-620 colon) was greater than 91.9 µM and the GI50 (T-47D breast) was 29.7 µM. The TGI (T-47D breast) was greater than 94.1 µM, the GI50 (TK-10 renal) was greater than 100 µM and the TGI (TK-10 renal) was greater than 100 µM. The GI50 (U251 glioblastoma) was 98 µM, the TGI (U251 glioblastoma) was greater than 100 µM and the GI50 (UACC-62 melanoma) was 37.9 µM. It also gave a TGI (UACC-62 melanoma) greater than 100 µM.
